Legend:
[1] = test system: Candida albicans TIMM1768; test: In vitro screening of material performing synergistic effect (10 min contact, crystal violet staining, absorbance 620 nm); assay type: cell-based; settings: for synergistic effect by the combined use with a protamine hydrolysate: combined with protamine hydrolysate 0.125 or 2.0 mg/mL; for antibacterial activity in single use (relative absorbance, blank = 1): 0.008-1 mg/mL
Source text: Candida albicans TIMM1768
Hinokitiol (manufactured by Kiseitech Co., Ltd.), terpinen-4-ol (manufactured by Tokyo Chemical Industry, Co., Ltd.), geraniol (manufactured by Kanto Chemical Co., Inc.), menthol (manufactured by Wako Pure Chemical Industries, Ltd.), cinnamaldehyde (manufactured by Wako Pure Chemical Industries, Ltd.) and capric acid (manufactured by Wako Pure Chemical Industries, Ltd.) were individually dissolved in RPMI medium so that the concentration in a test material was 0.008, 0.04, 0.2, 1 mg/mL, and the protamine hydrolysate prepared according to Example 1 was dissolved so that the concentration of the protamine hydrolysate in a test material was 0, 0.125, 2.0 mg/mL, and the solutions were subjected to the test. Further, 0.002, 0.008, 0.031, 0.125, 0.5, 2, 8, 32 mg/mL solutions using the protamine hydrolysate singly were subjected to the test. Evaluation method
C. albicans TIMM1768 strain was added to a 96 well microplate each in an amount of 200 μL so that 2.5×10^5 cells/well, and cultured for 2.5 to 3.5 hours at 37° C. under 5% CO2. After cultivation, each medium was removed under suction, and each test material was added in an amount of 200 μL/well. After allowing to stand still at 37° C. for 10 minutes, each sample solution was removed under suction, and RPMI medium was added in an amount of 200 μL/well, and cultured for 2.5 hours at 37° C. under 5% CO2. After cultivation, each sample was stained with crystal violet and the absorbance at 620 nm was measured. The antibacterial activity was expressed in terms of the relative value of each experimental section when the blank absorbance was 1.
The results of in vitro evaluation when using a protamine hydrolysate and terpene alcohols in combination are shown in FIGS. 1 to 6, and the result of in vitro evaluation when using a protamine hydrolysate singly is shown in FIG. 7. In FIGS. 1 to 6, ♦ represents the result of single use of terpene alcohols, ▪ represents the result of the combined use with a protamine hydrolysate 0.125 mg/ml, and ▴ represents the result of the combined use with a protamine hydrolysate 2.0 mg/ml, respectively.

[2] = test system: Candida albicans TIMM1768; test: In vitro combined use of protamine hydrolysate and Hinokitiol (16 h culture, crystal violet), IC90 and FIC index; assay type: cell-based; settings: TIMM1768, Pro 0, none printed in the table, read-out: IC90 of hinokitiol alone
Experimental: FIC index=A1/A0+B1/B0 (1) • A0: MIC when agent A is used alone • A1: MIC of agent A when agent A and agent B are used in combination • B0: MIC when agent B is used alone • B1: MIC of agent B when agent A and agent B are used in combination Evaluation of synergistic effect by FIC index • FIC≦0.5: synergistic effect • 0.5<FIC≦1.0: additive effect • 1.0<FIC≦2.0: no relation • 2.0<FIC: antagonistic effect
Hinokitiol (manufactured by Kiseitech Co., Ltd.) was dissolved in RPMI medium so that the concentration in each test material was 0, 0.004, 0.008, 0.016, 0.031, 0.063, 0.125, 0.25, 0.5, or 1 μg/mL, and the protamine hydrolysate prepared according to Example 1 was dissolved so that the concentration of the protamine hydrolysate in each test material was 0, 0.156, 0.313, 0.625, 1.25, 2.5, 5, or 10 μg/mL, and they were subjected to the test.
C. albicans TIMM1768 strain was diluted with RPMI medium so that 5.0×10^3 cells/m L, then, added to a 96 well microplate each in an amount of 100 μL. The protamine hydrolysate solution was added each in an amount of 50 μL/well, then, Hinokitiol was added each in an amount of 50 μL/well. After cultivation for 16 hours at 37° C. under 5% CO2, each sample was stained with crystal violet and the absorbance at 620 nm was measured.

Compound	synergistic effect by the combined use with a protamine hydrolysate [1]	antibacterial activity in single use (relative absorbance, blank = 1) [1]	IC90 [2]
O=CC=Cc1ccccc1 [Cinnamaldehyde, cinnamaldehyde, reference compound]	the synergistic effect by the combined use with a protamine hydrolysate was not recognized	little antibacterial activity	
CC(C)c1cccc(=O)c(O)c1 [Hinokitiol]	a synergistic effect of improving activity by the combined use with a protamine hydrolysate was recognized	showed an antibacterial activity even in the single use	0.77 µg/mL
CCCCCCCCCC(=O)O [capric acid, reference compound]	the synergistic effect by the combined use with a protamine hydrolysate was not recognized	little antibacterial activity	
CC(C)=CCC/C(C)=C/CO [geraniol]	the activity was slightly improved by the combined use with a protamine hydrolysate	low activity	
CC1CCC(C(C)C)C(O)C1 (stereo not shown) [menthol]	the activity was slightly improved by the combined use with a protamine hydrolysate	low activity	
CC1=CCC(O)(C(C)C)CC1 (stereo not shown) [terpinen-4-ol]	the activity was slightly improved by the combined use with a protamine hydrolysate	low activity	
